{"source": "patent US20140271716A1", "about": "“Intra-testicular Injection of Immunogens” (priority 2013, published 2014)", "key": {"[1]": {"experiment": "Zinc level in blood after intra-testicular injection of zinc acetate", "conditions": "pigs; for Zinc Concentration in blood: intra-testicular 0.5 ml (74 mg/ml) each testis"}, "[2]": {"experiment": "Zinc level in blood after intramuscular injection of zinc acetate", "conditions": "pigs, intramuscular 30 mg/kg"}}, "data": [{"molecule": "CC(=O)[O-].CC(=O)[O-].[Zn+2]", "note": "[zinc acetate]", "values": [{"measurement": "mean residence time", "setting": "[1]; intra-testicular", "result": "~60", "unit": "h"}, {"measurement": "time of second absorption phase after injection", "setting": "[1]; intra-testicular", "result": 24, "unit": "h"}, {"measurement": "Zinc Concentration in blood", "setting": "[1]; 0 Min (taken as zero)", "result": 0, "unit": "μ mol/L"}, {"measurement": "Zinc Concentration in blood", "setting": "[1]; 30 Min", "result": 8.44, "unit": "μ mol/L"}, {"measurement": "Zinc Concentration in blood", "setting": "[1]; 1 hr.", "result": 7.49, "unit": "μ mol/L"}, {"measurement": "Zinc Concentration in blood", "setting": "[1]; 2 hr.", "result": 5.65, "unit": "μ mol/L"}, {"measurement": "Zinc Concentration in blood", "setting": "[1]; 3 hr.", "result": 5.27, "unit": "μ mol/L"}, {"measurement": "Zinc Concentration in blood", "setting": "[1]; 4 hr.", "result": 4.96, "unit": "μ mol/L"}, {"measurement": "Zinc Concentration in blood", "setting": "[1]; 6 hr.", "result": 4.06, "unit": "μ mol/L"}, {"measurement": "Zinc Concentration in blood", "setting": "[1]; 8 hr.", "result": 4.43, "unit": "μ mol/L"}, {"measurement": "Zinc Concentration in blood", "setting": "[1]; 12 hr.", "result": 3.87, "unit": "μ mol/L"}, {"measurement": "Zinc Concentration in blood", "setting": "[1]; 24 hr.", "result": 4.43, "unit": "μ mol/L"}, {"measurement": "Zinc Concentration in blood", "setting": "[1]; 48 hr.", "result": 3.11, "unit": "μ mol/L"}, {"measurement": "Zinc Concentration in blood", "setting": "[1]; 72 hr.", "result": "−0.36", "unit": "μ mol/L"}, {"measurement": "Zinc Concentration in blood", "setting": "[1]; 96 hr.", "result": "−0.29", "unit": "μ mol/L"}, {"measurement": "Zinc Concentration in blood", "setting": "[2]; 0 Min (physiological level)", "result": 45.3, "unit": "μ mol/L"}, {"measurement": "Zinc Concentration in blood", "setting": "[2]; 30 min", "result": 194.08, "unit": "μ mol/L"}, {"measurement": "Zinc Concentration in blood", "setting": "[2]; 1 hr.", "result": 76.17, "unit": "μ mol/L"}, {"measurement": "Zinc Concentration in blood", "setting": "[2]; 2 hr.", "result": 67.4, "unit": "μ mol/L"}, {"measurement": "Zinc Concentration in blood", "setting": "[2]; 3 hr.", "result": 65.22, "unit": "μ mol/L"}, {"measurement": "Zinc Concentration in blood", "setting": "[2]; 4 hr.", "result": 62.8, "unit": "μ mol/L"}, {"measurement": "Zinc Concentration in blood", "setting": "[2]; 6 hr.", "result": 61.6, "unit": "μ mol/L"}, {"measurement": "Zinc Concentration in blood", "setting": "[2]; 8 hr.", "result": 60.8, "unit": "μ mol/L"}, {"measurement": "Zinc Concentration in blood", "setting": "[2]; 12 hr.", "result": 54.3, "unit": "μ mol/L"}, {"measurement": "Zinc Concentration in blood", "setting": "[2]; 16 hr.", "result": 48.7, "unit": "μ mol/L"}, {"measurement": "Zinc Concentration in blood", "setting": "[2]; 24 hr.", "result": 47.3, "unit": "μ mol/L"}, {"measurement": "Zinc Concentration in blood", "setting": "[2]; 36 hr.", "result": 44.5, "unit": "μ mol/L"}, {"measurement": "Zinc Concentration in blood", "setting": "[2]; 48 hr.", "result": 44.2, "unit": "μ mol/L"}]}]}
